The values below come from patent publication US20090099169A1, “Benzofuran Compounds As EP1 Receptor Antagonists” (GLAXO GROUP LIMITED, priority 2006, published 2009).

The test has as its target T1, human EP3 receptor (Homo sapiens, UniProt P43115).
T1 construct: expressed in transfected cells; host or cells: CHO-K1
T1 sequence (P43115 1-390): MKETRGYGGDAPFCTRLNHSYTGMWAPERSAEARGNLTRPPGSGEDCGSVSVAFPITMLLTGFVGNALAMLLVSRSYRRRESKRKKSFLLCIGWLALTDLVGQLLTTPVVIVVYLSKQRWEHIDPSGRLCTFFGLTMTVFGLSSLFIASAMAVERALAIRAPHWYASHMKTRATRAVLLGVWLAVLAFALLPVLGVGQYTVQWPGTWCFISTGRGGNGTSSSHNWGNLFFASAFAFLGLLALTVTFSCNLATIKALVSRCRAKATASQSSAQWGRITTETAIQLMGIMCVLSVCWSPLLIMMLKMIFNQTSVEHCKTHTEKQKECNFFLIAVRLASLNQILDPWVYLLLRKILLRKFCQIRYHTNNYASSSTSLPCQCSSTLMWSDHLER
The test is described as follows: human EP3 calcium mobilisation assay. To be noted: CHO-K1 cells, antagonism of PGE2; averages of a number of experiments; read-out: functional pKi value (human EP3 calcium mobilisation assay) (converted). It counts as cell-based. The gist of the method: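 CHO-K1 cells stably transfected with human EP1 or EP3, loaded with Fluo-4 after 24 h culture, treated with compound, then challenged with PGE2. Calcium-driven fluorescence read on FLIPR; pIC50 is half-maximal inhibition of PGE2-induced calcium mobilisation, from curve fitting.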
A general note: Calcium flux is commonly read through the fluorescence of an indicator in the cells.

Each structure is given as a SMILES string.

For the compound `CC(C)c1cc2cc(Cl)cc(Cc3ccc(C(=O)O)o3)c2o1` [Example 1, 5-{[5-Chloro-2-(1-methylethyl)-1-benzofuran-7-yl]methyl}-2-furancarboxylic Acid], the Ki is 0.501 to 10 µM.
With `Cc1cc(C(=O)O)nn1Cc1cc(Cl)cc2cc(C(C)C)oc12` [Example 3, 1-{[5-Chloro-2-(1-methylethyl)-1-benzofuran-7-yl]methyl}-5-methyl-1H-pyrazole-3-carboxylic Acid], the Ki was 0.501 to 10 µM.
